Test results: ChEMBL document CHEMBL1201862, “PubChem BioAssay data set” (2004)
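1) Cells in 96-well plates. 2) Compound, 48 h, 5 concentrations. 3) Linear interpolation between surrounding doses. 4) Unreached endpoint = highest concentration. At the GI50, growth is halved.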 Activity calls are given as the source filed them. Rule as the data show it: active = GI50 up to about 1.1 µM and inactive = higher.

How the values were obtained:
Test in all cases: inhibition of tumour cell growth, NCI panel, 48 h
[1] = tested on: SW-620
[2] = tested on: HL-60
[3] = tested on: HCT-15
[4] = tested on: SK-MEL-5
[5] = tested on: SF-268
[6] = tested on: NCI-H23
[7] = tested on: SNB-75
[8] = tested on: MCF7
[9] = tested on: TK-10
[10] = tested on: HOP-92
[11] = tested on: SR
[12] = tested on: NCI-H226
[13] = tested on: KM12
[14] = tested on: CCRF-CEM
[15] = tested on: EKVX
[16] = tested on: 786-0
[17] = tested on: UACC-62
[18] = tested on: UO-31
[19] = tested on: COLO 205
[20] = tested on: NCI-H522
[21] = tested on: OVCAR-5
[22] = tested on: IGROV-1
[23] = tested on: HOP-62
[24] = tested on: A549
[25] = tested on: M14
[26] = tested on: OVCAR-4
[27] = tested on: OVCAR-8
[28] = tested on: Hs-578T
[29] = tested on: NCI-H460
[30] = tested on: HT-29
[31] = tested on: DU-145
[32] = tested on: K562
[33] = tested on: LOX IMVI
[34] = tested on: BT-549
[35] = tested on: ACHN
[36] = tested on: T47D
[37] = tested on: SK-MEL-2
[38] = tested on: Malme-3M
[39] = tested on: SNB-19
[40] = tested on: SN12C
[41] = tested on: SK-OV-3
[42] = tested on: MDA-MB-435
[43] = tested on: SF-295
[44] = tested on: U-251
[45] = tested on: MDA-N
[46] = tested on: OVCAR-3
[47] = tested on: MOLT-4
[48] = tested on: PC-3
[49] = tested on: SK-MEL-28
[50] = tested on: UACC-257
[51] = tested on: HCT-116
[52] = tested on: CAKI-1
[53] = tested on: RPMI-8226
[54] = tested on: NCI/ADR-RES
[55] = tested on: HCC 2998
[56] = tested on: A498

Measured: GI50

Cc1ccc(S(=O)(=O)N/N=C2/CCC3(O)CC2(C)CCC2[C@H]3CC2(C)C)cc1 (stereo not given in full)
inactive: [1] 27.9 µM | [2] 31.3 µM | [4] 16.5 µM | [5] 68.1 µM | [6] 37.3 µM | [7] 21.4 µM | [8] 35.5 µM | [9] 34.3 µM | [10] 29.2 µM | [11] 35.9 µM | [12] 27.2 µM | [13] 32.6 µM | [14] 12 µM | [15] 31.7 µM | [16] 31.8 µM | [17] 20.3 µM | [18] 25.7 µM | [19] 16.3 µM | [20] 26.2 µM | [21] 29.4 µM | [22] 23.5 µM | [23] 43 µM | [24] 27.3 µM | [25] 43.4 µM | [26] 35.9 µM | [27] 34.7 µM | [28] 35.5 µM | [29] 22.8 µM | [30] 33.6 µM | [31] 36.6 µM | [32] 16.9 µM | [33] 11.2 µM | [34] 32.1 µM | [35] 29.8 µM | [36] > 100 µM | [37] 23.8 µM | [38] 35.3 µM | [39] 37.7 µM | [40] 33.3 µM | [41] 32.4 µM | [42] 27.8 µM | [43] 25.1 µM | [44] 17.5 µM | [45] 30.7 µM | [46] 40.2 µM | [47] 11.4 µM | [48] 12.5 µM | [49] 24.9 µM | [50] 37.8 µM | [51] 24.8 µM | [52] 52.6 µM | [53] 38.4 µM | [54] 28.2 µM
27.1 µM: [3]

COc1ccc(C2=Nn3c(nnc3-c3ccccc3)S/C2=C\c2ccc(-c3ccc([N+](=O)[O-])cc3)o2)cc1
inactive: [1] 24.2 µM | [2] 14.5 µM | [4] 27.6 µM | [5] 28.8 µM | [8] 15.1 µM | [10] 54.8 µM | [11] 9.62 µM | [13] 23.2 µM | [14] 5.7 µM | [15] 50.9 µM | [16] 24.9 µM | [17] 48.3 µM | [18] 36.4 µM | [19] 25.8 µM | [20] 12.8 µM | [21] 47.6 µM | [22] 56.9 µM | [23] 52.4 µM | [24] 36.7 µM | [25] 25.4 µM | [26] 30 µM | [27] 30.5 µM | [28] 33.7 µM | [55] 28 µM | [56] 58.6 µM | [29] 27.4 µM | [30] 26.4 µM | [32] 13.3 µM | [33] 25 µM | [34] 26.2 µM | [35] 64.1 µM | [36] 18.6 µM | [37] 15.8 µM | [38] 34.8 µM | [39] 33.3 µM | [40] 18.2 µM | [41] 34.4 µM | [42] 5.83 µM | [43] 26.5 µM | [44] 22.6 µM | [45] 7.6 µM | [46] 23.3 µM | [47] 11.3 µM | [48] 27.3 µM | [49] 69.7 µM | [50] 44.7 µM | [51] 29.6 µM | [52] 51.2 µM | [53] 13.1 µM | [54] 25.2 µM
16.5 µM: [3]
